Literature values in patent publication US20250108011A1, “ORAL DOSAGE FORMS OF A […] ACTIVE ACID-LABILE SALT AND METHODS AND USES RELATED THERETO” (Rijksuniversiteit Groningen, priority 2022, published 2025).

Legend:
[1] = system: calciphylaxis; conditions: oral maintenance therapy, ref [21]
[2] = system: hypertensive rats
[3] = system: hypercalciuric rats; conditions: oral, ref [22]
[4] = system: pregnant Dahl salt-sensitive rats; conditions: ref [23]

O=S([O-])([O-])=S.[Na+].[Na+] [STS, Sodium thiosulfate]
tolerability of oral administration [1]: well tolerated with no reported side effects | renal effect of oral STS as a single treatment regimen ([2]; oral, ref [19]): renoprotective effects | effect as a single treatment regimen in hypertensive rats ([2]; refs [17,18]): reduced blood pressure, proteinuria, kidney and heart damage | cardiac effect of oral STS ([2]; same model, ref [20]): Cardioprotective effects | effect on nephrolithiasis [3]: reduce calcium phosphate nephrolithiasis | effect on blood pressure [4]: antihypertensive effects
